Patent US20100286186A1, “NOVEL DICARBOXYLIC ACID LINKED AMINO ACID AND PEPTIDE PRODRUGS OF OPIOIDS AND USES THEREOF” (Shire LLC, priority 2009, published 2010)

Tests used:
[1] = test system: gut motility in the rat; assay: Charcoal propulsion test of GI motility in the rat; format: in vivo; conditions: oral
Experimental: Test treatments were administered to groups of up to 10 rats fasted overnight prior to the test.
Test treatments were administered orally 60 minutes prior to a 2.0 mL oral dose of a 10% suspension of charcoal in 5% gum arabic. Thirty minutes after dosing with charcoal, the rats were sacrificed and the entire gastro-intestinal tract quickly and carefully removed. The distance the charcoal meal had traveled from the pyloric sphincter toward the caecum was measured and expressed as a percentage of both the total gut length and the length of the small intestine.

[2] = Plasma pharmacokinetics of meptazinol dicarboxylate linked prodrugs after oral gavage to dogs; format: in vivo, dog; conditions: dog, oral gavage of prodrug, 1 mg meptazinol base equivalents/kg; for Dog Cmax (plasma prodrug levels, in brackets): prodrug level, BLQ = below 0.5 ng/mL
[3] = In vitro stability of dicarboxylate amino acid ester prodrugs in simulated gastric and intestinal juice, distilled water and pH 10 buffer (HPLC); conditions: for Simulated gastric fluid (pH 1.1): % remaining after 2 h/37° C.: pH 1.1, 2 h; for Distilled water (pH 5.9): % remaining after 2 h/20° C.: pH 5.9, 2 h; for Simulated intestinal fluid (pH 6.8): % remaining after 2 h/37° C.: pH 6.8, 2 h; for pH 10.0 buffer: % remaining after 2 h/20° C.: pH 10.0, 2 h
[4] = Comparative oral bioavailability of oxycodone from various dicarboxylate bridged amino acid prodrugs in dogs (nine-way crossover); format: in vivo, dog; conditions: 1 mg/kg oxycodone free base; for Cmax of oxycodone / T50% Cmax of oxycodone / AUC0-t of oxycodone: mean (±sd); for AUC0-t of oxycodone: t = last quantifiable time point

## COc1ccc2c3c1O[C@H]1[C@@H](O)C=C[C@H]4[C@@H](C2)N(C)CC[C@@]341 [Codeine phosphate hemihydrate]
[1]; 10 mg/kg
  % change from vehicle-treated animals, small intestine: −22.0%
  % change from vehicle-treated animals, total gut length: −21.7%
[1]; 30 mg/kg
  % change from vehicle-treated animals, small intestine: −32.1%
  % change from vehicle-treated animals, total gut length: −32.0%
[1]; 100 mg/kg
  % change from vehicle-treated animals, small intestine: −35.1%
  % change from vehicle-treated animals, total gut length: −34.9%

## COc1ccc2c3c1O[C@H]1[C@@H](O)CC[C@H]4[C@@H](C2)N(C)CC[C@@]341.O=C(O)C(O)C(O)C(=O)O [Dihydrocodeine Hydrogen Tartrate, reference compound]
[1]; 10 mg/kg
  % change from vehicle-treated animals, small intestine: −17.6%
  % change from vehicle-treated animals, total gut length: −16.3%
[1]; 30 mg/kg
  % change from vehicle-treated animals, small intestine: −29.8%
  % change from vehicle-treated animals, total gut length: −30.5%
[1]; 100 mg/kg
  % change from vehicle-treated animals, small intestine: −56.4%
  % change from vehicle-treated animals, total gut length: −57.0%
[1]; 300 mg/kg
  % change from vehicle-treated animals, small intestine: −67.7%
  % change from vehicle-treated animals, total gut length: −68.0%

## CCC1(c2cccc(OC(=O)/C=C\C(=O)N[C@@H](Cc3ccccc3)C(=O)O)c2)CCCCN(C)C1 (stereo partly drawn) [Meptazinol [malearyl-(S)-phenylanine] ester]
[2]
  Dog Cmax (plasma prodrug levels, in brackets): 1.7 ng/mL

## CCC1(c2cccc(OC(=O)CC(=O)NC(C(=O)O)C(C)C)c2)CCCCN(C)C1 [Meptazinol [malonyl-(S)-valine] ester]
[2]
  Dog Cmax (plasma prodrug levels, in brackets): 44 ng/mL

## CCC1(c2cccc(OC(=O)CC(=O)Nc3ccc(C(=O)O)cc3)c2)CCCCN(C)C1 (stereo not shown) [Meptazinol [malonyl-PABA] ester]
[2]; meptazinol level
  Dog Cmax (plasma meptazinol): 2.1 ng/mL

## COc1ccc2c3c1O[C@H]1C(OC(=O)CCC(=O)N4CCC[C@H]4C(=O)O)=CC[C@@]4(O)[C@@H](C2)N(C)CC[C@]314 [Oxycodone succinyl proline ester]
[3]
  Simulated gastric fluid (pH 1.1): % remaining after 2 h/37° C.: 98%
  Distilled water (pH 5.9): % remaining after 2 h/20° C.: 100%
  Simulated intestinal fluid (pH 6.8): % remaining after 2 h/37° C.: 96%
  pH 10.0 buffer: % remaining after 2 h/20° C.: 80%
[4]
  F % (absolute oral bioavailability of oxycodone): 20.8%
  Cmax of oxycodone: 20.1 (±4.60) ng/mL
  T50% Cmax of oxycodone: 3.4 (±0.9) h.
  AUC0-t of oxycodone: 75.2 (±13.7) h. * ng/mL

## CC[C@H](C)[C@H](NC(=O)CCCC(=O)OC1=CC[C@@]2(O)[C@H]3Cc4ccc(OC)c5c4[C@@]2(CCN3C)[C@H]1O5)C(=O)O [Oxycodone-Glutaryl-Ile Enol Ester, oxycodone-[glutaryl-(S)-isoleucine]enol ester]
[3]
  Simulated gastric fluid (pH 1.1): % remaining after 2 h/37° C.: 98%
  Distilled water (pH 5.9): % remaining after 2 h/20° C.: 100%
  Simulated intestinal fluid (pH 6.8): % remaining after 2 h/37° C.: 80%
  pH 10.0 buffer: % remaining after 2 h/20° C.: 80%
[4]
  F % (absolute oral bioavailability of oxycodone): 37.4%
  Cmax of oxycodone: 46.8 (±15.0) ng/mL
  T50% Cmax of oxycodone: 2.8 (±0.2) h.
  AUC0-t of oxycodone: 135.7 (±27.9) h. * ng/mL

## COc1ccc2c3c1O[C@H]1C(OC(=O)CCC(=O)N[C@@H](Cc4ccccc4)C(=O)O)=CC[C@@]4(O)[C@@H](C2)N(C)CC[C@]314 [Oxycodone-Succinyl-Phe Enol Ester, oxycodone-[succinyl-(S)-phenylalanine]enol ester]
[3]
  Simulated gastric fluid (pH 1.1): % remaining after 2 h/37° C.: 99%
  Distilled water (pH 5.9): % remaining after 2 h/20° C.: 100%
  Simulated intestinal fluid (pH 6.8): % remaining after 2 h/37° C.: 3%
  pH 10.0 buffer: % remaining after 2 h/20° C.: 65%
